#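 96-well plates; 48 h exposure; 5 concentrations. Endpoints by linear interpolation between flanking doses. Not reached: highest tested concentration assigned. TGI: total growth inhibition.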
# Tested on: SK-MEL-2 melanoma
# Test: inhibition of tumour cell growth, NCI panel, 48 h
row,SMILES,TGI
1,CSc1ccc(NC(=O)C2CCCCC2C(=O)O)cc1 (centres undefined),> 100 µM
2,CCCCCOc1ccc(Nc2c(O)c3c(c(O)c2Cl)C(=O)C=CC3=O)cc1,> 10 µM
3,CCOC(=O)Oc1ccc(C(CNC(C)C)OC(=O)OCC)cc1OC(=O)OCC (centres undefined),> 100 µM

# Tested on: SK-MEL-28 melanoma
# Test: inhibition of tumour cell growth, NCI panel, 48 h
row,SMILES,TGI
1,C=C1C(=O)O[C@@H]2C[C@@H]3[C@]4(CC[C@]5(C)[C@@H]([C@H](C)CC/C=C(\C)C=O)CC[C@@]35C)C[C@]4(CCC(=O)OC)[C@H]12,3.99 µM
2,CSc1ccc(NC(=O)C2CCCCC2C(=O)O)cc1 (centres undefined),> 100 µM
3,CCCCCOc1ccc(Nc2c(O)c3c(c(O)c2Cl)C(=O)C=CC3=O)cc1,8.66 µM
4,CCOC(=O)Oc1ccc(C(CNC(C)C)OC(=O)OCC)cc1OC(=O)OCC (centres undefined),> 100 µM

# Tested on: SK-MEL-5 melanoma
# Test: inhibition of tumour cell growth, NCI panel, 48 h
row,SMILES,TGI
1,C=C1C(=O)O[C@@H]2C[C@@H]3[C@]4(CC[C@]5(C)[C@@H]([C@H](C)CC/C=C(\C)C=O)CC[C@@]35C)C[C@]4(CCC(=O)OC)[C@H]12,2.3 µM
2,CSc1ccc(NC(=O)C2CCCCC2C(=O)O)cc1 (centres undefined),> 100 µM
3,CCCCCOc1ccc(Nc2c(O)c3c(c(O)c2Cl)C(=O)C=CC3=O)cc1,> 10 µM
4,CCOC(=O)Oc1ccc(C(CNC(C)C)OC(=O)OCC)cc1OC(=O)OCC (centres undefined),> 100 µM

# Tested on: SK-OV-3 ovarian
# Test: inhibition of tumour cell growth, NCI panel, 48 h
row,SMILES,TGI
1,C=C1C(=O)O[C@@H]2C[C@@H]3[C@]4(CC[C@]5(C)[C@@H]([C@H](C)CC/C=C(\C)C=O)CC[C@@]35C)C[C@]4(CCC(=O)OC)[C@H]12,6.72 µM
2,CSc1ccc(NC(=O)C2CCCCC2C(=O)O)cc1 (centres undefined),> 100 µM
3,CCCCCOc1ccc(Nc2c(O)c3c(c(O)c2Cl)C(=O)C=CC3=O)cc1,> 10 µM
4,CCOC(=O)Oc1ccc(C(CNC(C)C)OC(=O)OCC)cc1OC(=O)OCC (centres undefined),> 100 µM

# Tested on: SN12C renal
# Test: inhibition of tumour cell growth, NCI panel, 48 h
row,SMILES,TGI
1,C=C1C(=O)O[C@@H]2C[C@@H]3[C@]4(CC[C@]5(C)[C@@H]([C@H](C)CC/C=C(\C)C=O)CC[C@@]35C)C[C@]4(CCC(=O)OC)[C@H]12,3.85 µM
2,CSc1ccc(NC(=O)C2CCCCC2C(=O)O)cc1 (centres undefined),> 100 µM
3,CCCCCOc1ccc(Nc2c(O)c3c(c(O)c2Cl)C(=O)C=CC3=O)cc1,> 10 µM
4,CCOC(=O)Oc1ccc(C(CNC(C)C)OC(=O)OCC)cc1OC(=O)OCC (centres undefined),> 100 µM

# Tested on: SNB-19 CNS
# Test: inhibition of tumour cell growth, NCI panel, 48 h
row,SMILES,TGI
1,C=C1C(=O)O[C@@H]2C[C@@H]3[C@]4(CC[C@]5(C)[C@@H]([C@H](C)CC/C=C(\C)C=O)CC[C@@]35C)C[C@]4(CCC(=O)OC)[C@H]12,3.9 µM
2,CSc1ccc(NC(=O)C2CCCCC2C(=O)O)cc1 (centres undefined),> 100 µM
3,CCCCCOc1ccc(Nc2c(O)c3c(c(O)c2Cl)C(=O)C=CC3=O)cc1,> 10 µM
4,CCOC(=O)Oc1ccc(C(CNC(C)C)OC(=O)OCC)cc1OC(=O)OCC (centres undefined),> 100 µM

# Tested on: SNB-75 CNS
# Test: inhibition of tumour cell growth, NCI panel, 48 h
row,SMILES,TGI
1,C=C1C(=O)O[C@@H]2C[C@@H]3[C@]4(CC[C@]5(C)[C@@H]([C@H](C)CC/C=C(\C)C=O)CC[C@@]35C)C[C@]4(CCC(=O)OC)[C@H]12,4.51 µM
2,CSc1ccc(NC(=O)C2CCCCC2C(=O)O)cc1 (centres undefined),> 100 µM
3,CCCCCOc1ccc(Nc2c(O)c3c(c(O)c2Cl)C(=O)C=CC3=O)cc1,> 10 µM
4,CCOC(=O)Oc1ccc(C(CNC(C)C)OC(=O)OCC)cc1OC(=O)OCC (centres undefined),> 100 µM

# Tested on: SR leukemia
# Test: inhibition of tumour cell growth, NCI panel, 48 h
row,SMILES,TGI
1,C=C1C(=O)O[C@@H]2C[C@@H]3[C@]4(CC[C@]5(C)[C@@H]([C@H](C)CC/C=C(\C)C=O)CC[C@@]35C)C[C@]4(CCC(=O)OC)[C@H]12,2.32 µM
2,CSc1ccc(NC(=O)C2CCCCC2C(=O)O)cc1 (centres undefined),> 100 µM
3,CCCCCOc1ccc(Nc2c(O)c3c(c(O)c2Cl)C(=O)C=CC3=O)cc1,6.99 µM
4,CCOC(=O)Oc1ccc(C(CNC(C)C)OC(=O)OCC)cc1OC(=O)OCC (centres undefined),> 100 µM

# Tested on: SW-620 colon
# Test: inhibition of tumour cell growth, NCI panel, 48 h
row,SMILES,TGI
1,C=C1C(=O)O[C@@H]2C[C@@H]3[C@]4(CC[C@]5(C)[C@@H]([C@H](C)CC/C=C(\C)C=O)CC[C@@]35C)C[C@]4(CCC(=O)OC)[C@H]12,4.11 µM
2,CSc1ccc(NC(=O)C2CCCCC2C(=O)O)cc1 (centres undefined),> 100 µM
3,CCCCCOc1ccc(Nc2c(O)c3c(c(O)c2Cl)C(=O)C=CC3=O)cc1,> 10 µM
4,CCOC(=O)Oc1ccc(C(CNC(C)C)OC(=O)OCC)cc1OC(=O)OCC (centres undefined),> 100 µM

# Tested on: T-47D breast
# Test: inhibition of tumour cell growth, NCI panel, 48 h
row,SMILES,TGI
1,C=C1C(=O)O[C@@H]2C[C@@H]3[C@]4(CC[C@]5(C)[C@@H]([C@H](C)CC/C=C(\C)C=O)CC[C@@]35C)C[C@]4(CCC(=O)OC)[C@H]12,4.93 µM
2,CSc1ccc(NC(=O)C2CCCCC2C(=O)O)cc1 (centres undefined),> 100 µM
3,CCCCCOc1ccc(Nc2c(O)c3c(c(O)c2Cl)C(=O)C=CC3=O)cc1,> 9.64 µM
4,CCOC(=O)Oc1ccc(C(CNC(C)C)OC(=O)OCC)cc1OC(=O)OCC (centres undefined),> 100 µM

# Tested on: TK-10 renal
# Test: inhibition of tumour cell growth, NCI panel, 48 h
row,SMILES,TGI
1,C=C1C(=O)O[C@@H]2C[C@@H]3[C@]4(CC[C@]5(C)[C@@H]([C@H](C)CC/C=C(\C)C=O)CC[C@@]35C)C[C@]4(CCC(=O)OC)[C@H]12,3.99 µM
2,CSc1ccc(NC(=O)C2CCCCC2C(=O)O)cc1 (centres undefined),> 100 µM
3,CCCCCOc1ccc(Nc2c(O)c3c(c(O)c2Cl)C(=O)C=CC3=O)cc1,> 10 µM
4,CCOC(=O)Oc1ccc(C(CNC(C)C)OC(=O)OCC)cc1OC(=O)OCC (centres undefined),> 100 µM

# Tested on: U251 CNS
# Test: inhibition of tumour cell growth, NCI panel, 48 h
row,SMILES,TGI
1,C=C1C(=O)O[C@@H]2C[C@@H]3[C@]4(CC[C@]5(C)[C@@H]([C@H](C)CC/C=C(\C)C=O)CC[C@@]35C)C[C@]4(CCC(=O)OC)[C@H]12,2.86 µM
2,CSc1ccc(NC(=O)C2CCCCC2C(=O)O)cc1 (centres undefined),> 100 µM
3,CCCCCOc1ccc(Nc2c(O)c3c(c(O)c2Cl)C(=O)C=CC3=O)cc1,> 10 µM
4,CCOC(=O)Oc1ccc(C(CNC(C)C)OC(=O)OCC)cc1OC(=O)OCC (centres undefined),> 100 µM

# Tested on: UACC-257 melanoma
# Test: inhibition of tumour cell growth, NCI panel, 48 h
row,SMILES,TGI
1,C=C1C(=O)O[C@@H]2C[C@@H]3[C@]4(CC[C@]5(C)[C@@H]([C@H](C)CC/C=C(\C)C=O)CC[C@@]35C)C[C@]4(CCC(=O)OC)[C@H]12,1.13 µM
2,CSc1ccc(NC(=O)C2CCCCC2C(=O)O)cc1 (centres undefined),> 100 µM
3,CCCCCOc1ccc(Nc2c(O)c3c(c(O)c2Cl)C(=O)C=CC3=O)cc1,> 10 µM
4,CCOC(=O)Oc1ccc(C(CNC(C)C)OC(=O)OCC)cc1OC(=O)OCC (centres undefined),> 100 µM

# Tested on: UACC-62 melanoma
# Test: inhibition of tumour cell growth, NCI panel, 48 h
row,SMILES,TGI
1,C=C1C(=O)O[C@@H]2C[C@@H]3[C@]4(CC[C@]5(C)[C@@H]([C@H](C)CC/C=C(\C)C=O)CC[C@@]35C)C[C@]4(CCC(=O)OC)[C@H]12,3.06 µM
2,CSc1ccc(NC(=O)C2CCCCC2C(=O)O)cc1 (centres undefined),> 100 µM
3,CCCCCOc1ccc(Nc2c(O)c3c(c(O)c2Cl)C(=O)C=CC3=O)cc1,> 10 µM
4,CCOC(=O)Oc1ccc(C(CNC(C)C)OC(=O)OCC)cc1OC(=O)OCC (centres undefined),> 100 µM

# Tested on: UO-31 renal
# Test: inhibition of tumour cell growth, NCI panel, 48 h
row,SMILES,TGI
1,C=C1C(=O)O[C@@H]2C[C@@H]3[C@]4(CC[C@]5(C)[C@@H]([C@H](C)CC/C=C(\C)C=O)CC[C@@]35C)C[C@]4(CCC(=O)OC)[C@H]12,3.53 µM
2,CSc1ccc(NC(=O)C2CCCCC2C(=O)O)cc1 (centres undefined),> 100 µM
3,CCCCCOc1ccc(Nc2c(O)c3c(c(O)c2Cl)C(=O)C=CC3=O)cc1,> 9.67 µM
4,CCOC(=O)Oc1ccc(C(CNC(C)C)OC(=O)OCC)cc1OC(=O)OCC (centres undefined),> 100 µM

# Source: PubChem BioAssay (NCI)
